The results in this text go back to PubChem BioAssay AID256 (DTP/NCI, 2004).

In this assay the test system is CD2F1 mice, L1210 leukemia ip, survival T/C. Briefly: NCI In Vivo Anticancer Drug Screen. Data for tumor model L1210 Leukemia (intraperitoneal) in CD2F1 (CDF1) mice. Conditions: higher = longer survival. The gist of the method: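 Each value reflects a quotient of treated over vehicle control outcomes in mice with a transplanted tumor.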
The mark [1] stands for this setting: endpoint: mean survival time, dose: 100.0 mg/kg/injection, schedule: Q01DX001 (ip), vehicle: saline.
Setting [2] is: endpoint: mean survival time, dose: 200.0 mg/kg/injection, schedule: Q01DX001 (ip), vehicle: saline.
Where [3] appears, read: endpoint: mean survival time, dose: 400.0 mg/kg/injection, schedule: Q01DX001 (ip), vehicle: saline.
Setting [4] is: endpoint: mean survival time, dose: 25.0 mg/kg/injection, schedule: Q01DX009 (ip), vehicle: saline with Tween-80.
The mark [5] stands for this setting: endpoint: mean survival time, dose: 50.0 mg/kg/injection, schedule: Q01DX009 (ip), vehicle: saline with Tween-80.
Setting [6] is: endpoint: mean survival time, dose: 100.0 mg/kg/injection, schedule: Q01DX009 (ip), vehicle: saline with Tween-80.
The mark [7] stands for this setting: endpoint: mean survival time, dose: 100.0 mg/kg/injection, schedule: Q04DX003 (ip), vehicle: saline with Tween-80.
[8] abbreviates: endpoint: mean survival time, dose: 200.0 mg/kg/injection, schedule: Q04DX003 (ip), vehicle: saline with Tween-80.
The mark [9] stands for this setting: endpoint: mean survival time, dose: 400.0 mg/kg/injection, schedule: Q04DX003 (ip), vehicle: saline with Tween-80.

The structures appear in SMILES notation. “And” between values parts separate entries of the source, which are not always exact repeats. Identical values can stand only once. Toxic doses and inconclusive results are not listed.

For `O=C(NCCCN1CCOCC1)c1ccc(C(=O)NCCCN2CCOCC2)cc1`, the T/C is 95 % of control under setting [1], 98 % of control under setting [2] and 101 % of control under setting [3].
For `Cc1ccc(C2=C(O)C(=O)C(c3ccc(C)cc3)=C(O)C2=O)cc1`, the T/C (endpoint: mean survival time, dose: 75.0 mg/kg/injection, schedule: Q01DX001 (ip), vehicle: other) was 105 % of control and the T/C (endpoint: mean survival time, dose: 150.0 mg/kg/injection, schedule: Q01DX001 (ip), vehicle: other) was 102 % of control.
For `ClC1CCC[N-]C1.ClC1CCC[N-]C1.[Cl][Pt+2]([Cl])([Cl])[Cl]` (centres undefined), the T/C was 102 % of control (endpoint: mean survival time, dose: 0.78 mg/kg/injection, schedule: Q01DX009 (ip), vehicle: saline with Tween-80); 109 % of control (endpoint: mean survival time, dose: 1.56 mg/kg/injection, schedule: Q01DX009 (ip), vehicle: saline with Tween-80); 105 % of control (endpoint: mean survival time, dose: 3.13 mg/kg/injection, schedule: Q01DX009 (ip), vehicle: saline with Tween-80); 112 % of control (endpoint: mean survival time, dose: 6.25 mg/kg/injection, schedule: Q01DX009 (ip), vehicle: saline with Tween-80); 104 % of control (endpoint: mean survival time, dose: 12.5 mg/kg/injection, schedule: Q01DX009 (ip), vehicle: saline with Tween-80).
Take `CCCCCCC(C)NCCOC(=O)c1ccccc1` (centres undefined): the T/C was 103 % of control (endpoint: mean survival time, dose: 75.0 mg/kg/injection, schedule: Q01DX001 (ip), vehicle: saline); 102 % of control (endpoint: mean survival time, dose: 150.0 mg/kg/injection, schedule: Q01DX001 (ip), vehicle: saline); 97 % of control (endpoint: mean survival time, dose: 300.0 mg/kg/injection, schedule: Q01DX001 (ip), vehicle: saline).
As to `CCOC(=O)CNC(=O)Sc1ccc(C(C)(C)C)cc1`, the T/C was 96 % of control and 105 % of control (endpoint: mean survival time, dose: 12.5 mg/kg/injection, schedule: Q01DX009 (ip), vehicle: Klucel (hydroxypropylcellulose) (HPC)); 101 % of control and 105 % of control (endpoint: mean survival time, dose: 25.0 mg/kg/injection, schedule: Q01DX009 (ip), vehicle: Klucel (hydroxypropylcellulose) (HPC)); 101 % of control and 102 % of control (endpoint: mean survival time, dose: 50.0 mg/kg/injection, schedule: Q01DX009 (ip), vehicle: Klucel (hydroxypropylcellulose) (HPC)); 100 % of control and 105 % of control (endpoint: mean survival time, dose: 100.0 mg/kg/injection, schedule: Q01DX009 (ip), vehicle: Klucel (hydroxypropylcellulose) (HPC)); 100 % of control and 103 % of control (endpoint: mean survival time, dose: 200.0 mg/kg/injection, schedule: Q01DX009 (ip), vehicle: Klucel (hydroxypropylcellulose) (HPC)); 97 % of control (endpoint: mean survival time, dose: 400.0 mg/kg/injection, schedule: Q01DX009 (ip), vehicle: Klucel (hydroxypropylcellulose) (HPC)).
As for `O=C(O)c1cccc2c1C(=O)c1ccccc1C2=O`, the T/C is 117 % of control (endpoint: mean survival time, dose: 100.0 mg/kg/injection, schedule: Q04DX003 (ip), vehicle: Klucel (hydroxypropylcellulose) (HPC)); 101 % of control (endpoint: mean survival time, dose: 200.0 mg/kg/injection, schedule: Q04DX003 (ip), vehicle: Klucel (hydroxypropylcellulose) (HPC)); 109 % of control (endpoint: mean survival time, dose: 400.0 mg/kg/injection, schedule: Q04DX003 (ip), vehicle: Klucel (hydroxypropylcellulose) (HPC)).
As for `[O-][n+]1cccc2ccc3ccccc3c21`, the T/C runs as follows: (endpoint: mean survival time, dose: 50.0 mg/kg/injection, schedule: Q01DX009 (ip), vehicle: other) 101 % of control; (endpoint: mean survival time, dose: 100.0 mg/kg/injection, schedule: Q01DX009 (ip), vehicle: other) 101 % of control.
With `CC1(C)C(C2CCCC[N+]2=O)CS1(=O)=O` (centres undefined), the T/C is, setting by setting: under setting [1], 100 % of control; (endpoint: mean survival time, dose: 100.0 mg/kg/injection, schedule: Q04DX003 (ip), vehicle: saline) 101 % of control; under setting [2], 100 % of control; (endpoint: mean survival time, dose: 200.0 mg/kg/injection, schedule: Q04DX003 (ip), vehicle: saline) 103 % of control; under setting [3], 96 % of control; (endpoint: mean survival time, dose: 400.0 mg/kg/injection, schedule: Q04DX003 (ip), vehicle: saline) 105 % of control.
As to `C#CCCCN1CCC2(CC1)C(=O)N(C(=O)N(C)C)CN2c1ccccc1`, the T/C under setting [4] was 100 % of control, the T/C under setting [5] was 96 % of control and the T/C under setting [6] is 97 % of control.
Consider `CCCCN(CCCC)P1(=O)OCCO1`, for which the T/C was 103 % of control (endpoint: mean survival time, dose: 100.0 mg/kg/injection, schedule: Q04DX002 (ip), vehicle: saline); 107 % of control (endpoint: mean survival time, dose: 200.0 mg/kg/injection, schedule: Q04DX002 (ip), vehicle: saline); 98 % of control (endpoint: mean survival time, dose: 400.0 mg/kg/injection, schedule: Q04DX002 (ip), vehicle: saline).
For the molecule `NC(CSS(=O)(=O)O)=NCc1cccs1`, the T/C is 95 % of control (endpoint: mean survival time, dose: 25.0 mg/kg/injection, schedule: Q04DX002 (ip), vehicle: saline with Tween-80) and 115 % of control (endpoint: mean survival time, dose: 50.0 mg/kg/injection, schedule: Q04DX002 (ip), vehicle: saline with Tween-80).
As to `COc1cc2ccc(CC(N)=O)cc2cc1OC`, the T/C is, setting by setting: under setting [6], 100 % of control; (endpoint: mean survival time, dose: 200.0 mg/kg/injection, schedule: Q01DX009 (ip), vehicle: saline with Tween-80) 97 % of control; (endpoint: mean survival time, dose: 400.0 mg/kg/injection, schedule: Q01DX009 (ip), vehicle: saline with Tween-80) 97 % of control.
Turning to `O=C(c1cc2c3ccccc3ccc2c2ccccc12)C(Br)Br`, the T/C is, setting by setting: under setting [4], 106 % of control; under setting [5], 103 % of control; under setting [6], 100 % of control; under setting [7], 93 % of control.
Turning to `CS(=O)(=O)OCCNC(=O)N(CCCl)N=O`, the T/C is, setting by setting: (endpoint: mean survival time, dose: 0.39 mg/kg/injection, schedule: Q01DX009 (ip), vehicle: water) 95 % of control; (endpoint: mean survival time, dose: 0.78 mg/kg/injection, schedule: Q01DX009 (ip), vehicle: water) 108 % of control; (endpoint: mean survival time, dose: 3.13 mg/kg/injection, schedule: Q01DX009 (ip), vehicle: water) 193 % of control; (endpoint: mean survival time, dose: 5.0 mg/kg/injection, schedule: Q01DX001 (ip), vehicle: distilled water + Tween-80) 120 % of control; (endpoint: mean survival time, dose: 6.25 mg/kg/injection, schedule: Q01DX009 (ip), vehicle: water) 356 % of control; (endpoint: mean survival time, dose: 20.0 mg/kg/injection, schedule: Q01DX001 (ip), vehicle: distilled water + Tween-80) 216 % of control and 342 % of control. Further, for the setting “endpoint: mean survival time, dose: 40.0 mg/kg/injection, schedule: Q01DX001 (ip), vehicle: distilled water + Tween-80”, the T/C is 311 % of control and 500 % of control.
Turning to `Nc1cc2c(c[n+](CCCBr)c3ccccc23)c2ccccc12`, the T/C (endpoint: mean survival time, dose: 3.13 mg/kg/injection, schedule: Q04DX003 (ip), vehicle: other) was 111 % of control; the T/C (endpoint: mean survival time, dose: 6.25 mg/kg/injection, schedule: Q04DX003 (ip), vehicle: other) was 122 % of control; the T/C (endpoint: mean survival time, dose: 12.5 mg/kg/injection, schedule: Q04DX003 (ip), vehicle: other) was 120 % of control; the T/C (endpoint: mean survival time, dose: 25.0 mg/kg/injection, schedule: Q04DX003 (ip), vehicle: other) is 109 % of control; the T/C (endpoint: mean survival time, dose: 50.0 mg/kg/injection, schedule: Q04DX003 (ip), vehicle: other) is 87 % of control.
Regarding `CC1OC(=O)c2ccccc2S1=O` (centres undefined), the T/C by setting is: (endpoint: mean survival time, dose: 100.0 mg/kg/injection, schedule: Q01DX009 (ip), vehicle: saline sonified) 98 % of control; under setting [7], 98 % of control; (endpoint: mean survival time, dose: 200.0 mg/kg/injection, schedule: Q01DX009 (ip), vehicle: saline sonified) 97 % of control; under setting [8], 100 % of control; (endpoint: mean survival time, dose: 400.0 mg/kg/injection, schedule: Q01DX009 (ip), vehicle: saline sonified) 97 % of control; under setting [9], 104 % of control.
As to `Nc1ncnc2c1ncn2C1OC(CCC(=O)NCCc2c[nH]c3ccccc23)C(O)C1O` (centres undefined), the T/C is, setting by setting: (endpoint: median survival time, dose: 10.63 mg/kg/injection, schedule: Q01DX005 (ip), vehicle: distilled water + Tween-80) 101 % of control; (endpoint: median survival time, dose: 21.25 mg/kg/injection, schedule: Q01DX005 (ip), vehicle: distilled water + Tween-80) 102 % of control; (endpoint: median survival time, dose: 42.5 mg/kg/injection, schedule: Q01DX005 (ip), vehicle: distilled water + Tween-80) 97 % of control; (endpoint: median survival time, dose: 85.0 mg/kg/injection, schedule: Q01DX005 (ip), vehicle: distilled water + Tween-80) 96 % of control; (endpoint: median survival time, dose: 170.0 mg/kg/injection, schedule: Q01DX005 (ip), vehicle: distilled water + Tween-80) 101 % of control.
Take `Cc1nc(N)nc2c1CCC(O)S2` (centres undefined): the T/C was 96 % of control (endpoint: mean survival time, dose: 25.0 mg/kg/injection, schedule: Q01DX001 (ip), vehicle: Klucel (hydroxypropylcellulose) (HPC)); 96 % of control (endpoint: mean survival time, dose: 50.0 mg/kg/injection, schedule: Q01DX001 (ip), vehicle: Klucel (hydroxypropylcellulose) (HPC)); 96 % of control (endpoint: mean survival time, dose: 100.0 mg/kg/injection, schedule: Q01DX001 (ip), vehicle: Klucel (hydroxypropylcellulose) (HPC)).
On to `Cc1cc(=O)cc(C)n1C`, for which the T/C was 98 % of control under setting [7], 97 % of control under setting [8] and 94 % of control under setting [9].
